The values that follow are results of earlier work, collected in US6773610B2, “Method for controlling biofilm” (priority 1999, dated 2004).

This series deals with bacteria and viruses. As to conditions: versus chlorine.

On to `O=[O+][O-]` [Ozone], for which the “Speed of deactivation of bacteria and viruses relative to chlorine” value is recorded as 3125 times faster.
